From patent publication US7235263B2, “Processes for controlling microbial organic compound production” (Kimberly-Clark Worldwide, Inc., priority 2001, dated 2007)

Experiments:
Format in all cases: cell-based
[1] = test system: Proteus mirabilis (ATCC 29906); experiment: Ammonia production by facultatively grown Proteus mirabilis in urine:TSB (ammonia probe)
Method: (§1) Proteus mirabilis was taken from a TSB culture (described in (1) above) and grown under various conditions for use in the Examples. For bacteria to be grown under aerobic conditions, 50 microliters of Proteus mirabilis was taken from a TSB culture prepared as described above and inoculated into a 50 mL volume of a freshly made 9:1 (by volume) pooled adult female urine:TSB mixture into a 250 mL shake flask. This mixture was rotated at 250 rpm at 37° C. overnight to grow the bacteria. For bacteria to be grown under facultative conditions, 10 microliters of Proteus mirabilis was taken from a TSB culture prepared as described above and inoculated into a 10 mL volume of a freshly made 9:1 (by volume) pooled adult female urine:TSB mixture into a 15 mL tube. The tube was loosely fitted with a screw cap, and held stationary at 37° C. overnight to grow the bacteria. For bacteria to be grown under anaerobic conditions, 10 microliters of Proteus mirabilis was taken from a TSB culture prepared as described above and inoculated into a 10 mL volume of a freshly made 9:1 (by volume) pooled adult female urine:TSB mixture into a 15 mL conical tube. The tube was purged with nitrogen and a screw cap tightly closed, and then was held stationary overnight at 37° C. to grow the bacteria.
Upon completion of the respective incubation periods of the samples, optical density measurements of each sample were taken as described above and ammonia production of the growth solutions was measured using an ammonia combination probe (Beckman, Fullerton, Calif.) by record mV using an Orion pH meter (Orion, Boston, Mass.). Orion ammonia standards (Orion) were used to calibrate the instrument.
(§2) In this Example, six different samples were prepared for analysis. The first sample comprised a urine:TSB mixture that was prepared in the same manner as that described in Example 1. […] The tube was loosely fitted with a screw cap, and held stationary at 37° C. overnight to grow the bacteria. […] The fifth sample comprising urine:TSB:Proteus mirabilis (facultatively grown) was prepared in the same manner as that described in Example 1.

[2] = test system: Proteus mirabilis (ATCC 29906); experiment: Bacterial yield of facultatively grown Proteus mirabilis in urine:TSB (from optical density); details: Table 7; 10% (w/v) mannitol; facultative
Method: Proteus mirabilis (ATCC 29906) were recovered from frozen state by growing the appropriate bacterial coated MicroBank Bead (Pro Lab, Austin Tex.) in 10 mL trypticase soy broth (TSB, Difco, Ann Arbor, Mich.) in a 15 mL sterile loosely tightened screw capped conical tube overnight at 37° C. The tube was held stationary. (E. coli (ATCC 8739), utilized in Example 6 herein, was recovered using the same procedure described herein for Proteus mirabilis). Upon observation of turbidity, the bacterial suspension was checked for purity by isolation plate and Gram stain. Once determined that the isolate was Proteus mirabilis (or E. coli in Example 6), a colony from the isolation plate was transferred to 10 mL of TSB in a 15 mL sterile screw capped conical tube and incubated overnight at 37° C. under facultative conditions. Samples of bacterial suspension resulting from this overnight TSB culture were used to initiate all experiments utilizing Proteus mirabilis bacteria (or E. coli in Example 6).
as §1
In this Example, five samples were prepared and analyzed to determine: (1) Bacterial Yield (CFU/mL) calculated from optical density; (3) Percent viability of EPIOCULAR; and (4) EPIOCULAR IL-8. The samples included: (1) Deionized Water; (2) A urine:TSB mixture (9:1 by volume) as described above; (3) A urine:TSB mixture containing Proteus mirabilis bacteria grown under aerobic conditions as described above; (4) A urine:TSB mixture containing Proteus mirabilis bacteria grown under facultative conditions as described above; and (5) A urine:TSB mixture containing Proteus mirabilis bacteria grown under anaerobic conditions as described above.
as §2

Proteus mirabilis = experiment: Growth of aerobically cultivated Proteus mirabilis in urine:TSB, microtiter serial dilution, optical density; details: for optical density (bacterial cell growth): 48 hours at 37° C., aerobic
Method: Proteus mirabilis was cultured in TSB as described in Example 1 and transferred to a urine:TSB mixture (9:1) and incubated under aerobic conditions as described in Example 1. […] In a 96-well microtiter plate with a lid, 150 microliters of each 10% solution was introduced into the first and second columns of the wells. Using a multi-channel pipette, 150 microliters of urine:TSB mixture was introduced into each well except the first column. Beginning at the second column of wells, serial dilutions were made by removing 150 microliters from the second column and transferring it to the third column. The mixture was mixed by pipetting up and down three times. The serial dilutions continued across each column of the plate and, after column 11, 150 microliters was discarded leaving column 12 as the 0% solution. Each well was then inoculated with 1 microliter of Proteus mirabilis, except for the negative control rows. One to three drops of anti-fogging solution was place on the plate lids with a cotton applicator, and allowed to air dry. The mixtures were incubated for 48 hours at 37° C. under aerobic conditions. After incubation of the samples, each was analyzed for bacterial cell growth utilizing the optical density procedure as set forth in Example 1.

[3] = Table 7, 10% (w/v) mannitol, facultative

Compound | Ammonia Produced (n = 3) [1, 3] | Ammonia/Cell [1, 3] | impact on the production of ammonia in the bacteria ([1]; mannitol in the absence of hydrogen peroxide, 10% (w/v)) | Bacterial Yields [2] | optical density (bacterial cell growth) (Proteus mirabilis; 0.0097% in urine:TSB) | optical density (bacterial cell growth) (Proteus mirabilis; 0.0195% in urine:TSB) | optical density (bacterial cell growth) (Proteus mirabilis; 0.0391% in urine:TSB) | optical density (bacterial cell growth) (Proteus mirabilis; 0.0785% in urine:TSB) | optical density (bacterial cell growth) (Proteus mirabilis; 0.156% in urine:TSB) | optical density (bacterial cell growth) (Proteus mirabilis; 0.313% in urine:TSB) | optical density (bacterial cell growth) (Proteus mirabilis; 0.625% in urine:TSB) | optical density (bacterial cell growth) (Proteus mirabilis; 1.25% in urine:TSB) | optical density (bacterial cell growth) (Proteus mirabilis; 2.5% in urine:TSB) | optical density (bacterial cell growth) (Proteus mirabilis; 5% in urine:TSB) | optical density (bacterial cell growth) (Proteus mirabilis; 10% in urine:TSB) | effect on cell growth (Proteus mirabilis; at elevate concentrations) | effect on cell growth (Proteus mirabilis; at low concentrations)
OC[C@@H](O)[C@@H](O)[C@H](O)[C@H](O)CO [Mannitol, mannitol, reference compound] | 621.6 ± 1.8 ppm | 83.8 ppm/10E8CFU | does not significantly impact the production of ammonia | 6.91E+8 CFU/mL | 0.98 | 0.98 | 0.97 | 0.97 | 0.92 | 0.92 | 0.98 | 1.02 | 0.99 | 0.89 | 0.87 | little, if any, effect on cell growth | no effect on cell growth
mannitol peroxide [3 Hr.] | – | – | – | – | 0.98 | 0.94 | 0.94 | 0.97 | 0.99 | 0.83 | 0.99 | 0.04 | 0.03 | 0.03 | 0.03 | – | –
mannitol peroxide [4.5 Hr.] | – | – | – | – | 0.97 | 0.98 | 0.99 | 0.99 | 0.98 | 0.99 | 0.93 | 0.99 | 0.97 | 0.87 | 0.04 | – | –
mannitol peroxide [24 Hr.] | – | – | – | – | 0.99 | 0.98 | 0.99 | 0.97 | 0.97 | 0.97 | 0.96 | 0.95 | 0.93 | 0.88 | 0.80 | – | –
